These results are taken from patent publication US9018214B2, “Bicyclic heterocycle compounds and their uses in therapy” (Astex Therapeutics Limited, priority 2011, dated 2015).

For test [1], the target named is BIR3 domain of human XIAP (residues 252-350) (Homo sapiens (Human), UniProt P98170). As to the kind of experiment: XIAP in vitro competitive displacement binding assay (fluorescence polarization). The following applies: for IC50: read-out: IC50 or PI Xiap: IC50.
The target of test [2] is BIR3 domain of human cIAP-1 (residues 267-363) (Homo sapiens (Human), UniProt Q13490). As to the kind of experiment: cIAP-1 in vitro competitive displacement binding assay (fluorescence polarization; Probe A AVPIK(5&6FAM)-amide or Probe B AbuRPFK(5&6FAM)-amide). Background: Polarisation of emitted light reports the rotation of a fluorescent probe.
Setting [3] is: read-out: IC50 or PI cIAP1: IC50.
[4] abbreviates: Probe B AbuRPFK(5&6FAM)-amide, read-out: IC50 or PI cIAP1: IC50.
Setting [5] is: 3 h, Probe A, read-out: IC50 or PI cIAP1: PI.
[6] abbreviates: 1 h, read-out: IC50 or PI Xiap: PI.
Where [7] appears, read: Probe A AVPIK(5&6FAM)-amide, read-out: IC50 or PI cIAP1: IC50.

Molecules are shown by their SMILES. Structures can show the parent of a compound that is named as a salt. Where two headings read alike, the source gives them in different places. Where only a bound is given, the exact number is not on record here.

In general, IC50 refers to the concentration that inhibits the measured activity by half. As for `COC(=O)c1ccc2c(c1)N(C(=O)CN1CCN[C@H](C)C1)CC2` [Example 15, 1-[2-((R)-3-Methyl-piperazin-1-yl)-acetyl]-2,3-dihydro-1H-indole-6-carboxylic acid methyl ester], the values for the concentration for half-maximal inhibition (IC50) in test [1], in test [2] and in test [2] (setting [3]) were 19 µM, under 10 µM and 6.8 µM, respectively.

As for `COC[C@H]1CN[C@H](C)CN1CC(=O)N1CC(C)(C)c2cc(OC)ncc21` [Example 65, 1-(5-Methoxy-3,3-dimethyl-2,3-dihydro-pyrrolo[2,3-c]pyridin-1-yl)-2-((2R,5R)-2-methoxymethyl-5-methyl-piperazin-1-yl)-ethanone hydrochloride salt], the IC50 in test [1] amounted to 6 µM; in test [2] (setting [4]), 1.3 µM.

For the molecule `C[C@@H]1CN(CC(=O)N2CC(C)(C)c3cc(F)c(S(=O)(=O)C4CC4)cc32)CCN1` [Example 57, 1-(6-Cyclopropane-sulfonyl-5-fluoro-3,3-dimethyl-2,3-dihydro-indol-1-yl)-2-((R)-3-methyl-piperazin-1-yl)-ethanone dihydrochloride salt], the IC50 was determined as 0.81 µM in test [1] and 2 µM in test [2] (setting [3]).

As to `COC[C@H]1CN[C@H](C)CN1CC(=O)N1CC(C)(C)c2cnc(C(C)(F)F)cc21` [Example 181, 1-[6-(1,1-Difluoroethyl)-3,3-dimethyl-1H,2H,3H-pyrrolo[3,2-c]pyridin-1-yl]-2-[(2R,5R)-2-(methoxymethyl)-5-methylpiperazin-1-yl]ethan-1-one dihydrochloride], the results for the IC50 in test [1], in test [2] and in test [2] (setting [3]) were 0.33 µM, under 1 µM and 0.25 µM, respectively.

Turning to `CNC(=O)c1ccc2c(c1)N(C(=O)CN1CCN[C@H](C)C1)CC2` [Example 16, 1-[2-((R)-3-Methyl-piperazin-1-yl)-acetyl]-2,3-dihydro-1H-indole-6-carboxylic acid methylamide], in test [1] (1 h, @ 77 μM, read-out: IC50 or PI Xiap: PI), the inhibition at 77 µM was found to be 42%. The inhibition at 250 µM in test [2] (setting [5]) was found to be 56%.

On to `COC[C@H]1CN[C@H](C)CN1CC(=O)N1CC(C)(C(=O)OC)c2ccc(Br)cc21` (stereo partly drawn) [Example 129, Methyl 6-bromo-1-{2-[(2R,5R)-2-(methoxymethyl)-5-methylpiperazin-1-yl]acetyl}-3-methyl-2,3-dihydro-1H-indole-3-carboxylate hydrochloride], for which the figures for the IC50 in test [1] and in test [2] (setting [4]) were 1.3 µM and 0.48 µM, respectively.

As to `C[C@@H]1CN(CC(=O)N2CCc3ccccc32)CCN1` [Example 85, 1-(2,3-Dihydro-1H-indol-1-yl)-2-[(3R)-3-methylpiperazin-1-yl]ethan-1-one, hydrochloride salt], the inhibition at 500 µM in test [1] (1 h, @ 500 μM, read-out: IC50 or PI Xiap: PI) was 52%. In test [2] (setting [5]), the inhibition at 250 µM was determined as 45%.

For the molecule `C[C@@H]1CN(CC(=O)N2CCc3ccc(N)cc32)CCN1` [Example 7, 1-(6-Amino-2,3-dihydro-indol-1-yl)-2-((R)-3-methyl-piperazin-1-yl)-ethanone], in test [1] (1 h, @ 1600 μM, read-out: IC50 or PI Xiap: PI), the inhibition at 1600 µM was determined as 43%. In test [2] (3 h, Probe A, @ 5000 μM, read-out: IC50 or PI cIAP1: PI), the inhibition at 5000 µM is -30%.

As to `COC[C@H]1CN[C@H](C)CN1CC(=O)N1CC(C)(C)c2ccc(-c3nnn[nH]3)cc21` [Example 258, 1-[3,3-Dimethyl-6-(1H-tetrazol-5-yl)-2,3-dihydro-indol-1-yl]-2-((2R,5R)-2-methoxymethyl-5-methyl-piperazin-1-yl)-ethanone hydrochloride], in test [1] (setting [6]), the inhibition at 10 µM was determined as 58%. Further, the inhibition at 30 µM in test [2] (3 h, Probe B, @ 30 μM, read-out: IC50 or PI cIAP1: PI) is 37%.

For `COC[C@H]1CN[C@H](C)CN1CC(=O)N1CC(C)(C)c2cc(=O)n(CC(C)C)cc21` [Example 73, 6-Isobutyl-1-[2-((2R,5R)-2-methoxy-methyl-5-methyl-piperazin-1-yl)-acetyl]-3,3-dimethyl-1,2,3,6-tetrahydro-pyrrolo[2,3-c]pyridin-5-one hydrochloride salt], the inhibition at 3 µM in test [1] (1 h, @ 3 μM, read-out: IC50 or PI Xiap: PI) turned out to be 46%. The inhibition at 1 µM in test [2] (3 h, Probe B, @ 1 μM, read-out: IC50 or PI cIAP1: PI) came out at 60%.

For the molecule `CNC(=O)[C@H]1CN[C@H](C)CN1CC(=O)N1CC(C)(C)c2ccc(Cl)cc21` [Example 54, (2R,5R)-1-[2-(6-Chloro-3,3-dimethyl-2,3-dihydro-indol-1-yl)-2-oxo-ethyl]-5-methyl-piperazine-2-carboxylic acid methylamide hydrochloride salt], the IC50 amounted to 1.8 µM in test [1] and 2.1 µM in test [2] (setting [4]).

As to `COC[C@H]1CN[C@H](C)CN1CC(=O)N1CC(C)(C)c2ccc(CN3CCCC3=O)cc21` [Example 125, 1-[(1-{2-[(2R,5R)-2-(Methoxymethyl)-5-methylpiperazin-1-yl]acetyl}-3,3-dimethyl-2,3-dihydro-1H-indol-6-yl)methyl]pyrrolidin-2-one hydrochloride], the results for the IC50 in test [1] and in test [2] (setting [4]) were 29 µM and 0.73 µM, respectively.

On to `C[C@@H]1CN(CC(=O)N2CCc3cnc(-c4cc(Cl)ccc4F)cc32)CCN1` [Example 38, 1-[6-(5-Chloro-2-fluoro-phenyl)-2,3-dihydro-pyrrolo[3,2-c]pyridin-1-yl]-2-((R)-3-methyl-piperazin-1-yl)-ethanone hydrochloride salt], for which the IC50 in test [1] is 5.5 µM; in test [2], under 10 µM; in test [2] (setting [7]), 2.1 µM.

Regarding `CCC1(C)CN(C(=O)CN2C[C@@H](C)NC[C@@H]2COC)c2cc(Cl)ccc21` (stereo partly drawn) [Example 123, 1-(6-Chloro-3-ethyl-3-methyl-2,3-dihydro-1H-indol-1-yl)-2-[(2R,5R)-2-(methoxymethyl)-5-methylpiperazin-1-yl]ethan-1-one hydrochloride], the IC50 in test [1] was 1.3 µM; in test [2] (setting [4]), 0.52 µM.

On to `COC[C@H]1CN[C@H](C)CN1CC(=O)N1CC(C)(COC)c2ccc(Br)cc21` (stereo partly drawn) [Example 127, 1-[6-Bromo-3-(methoxymethyl)-3-methyl-2,3-dihydro-1H-indol-1-yl]-2-[(2R,5R)-2-(methoxymethyl)-5-methylpiperazin-1-yl]ethan-1-one hydrochloride], for which the IC50 in test [1] was 1.2 µM; in test [2] (setting [4]) it was 0.35 µM.

For `C[C@@H]1CN(CC(=O)N2CCc3cnccc32)CCN1` [Example 14, 1-(2,3-Dihydro-pyrrolo[3,2-c]pyridin-1-yl)-2-((R)-3-methyl-piperazin-1-yl)-ethanone], in test [1] (1 h, @ 99 μM, read-out: IC50 or PI Xiap: PI), the inhibition at 99 µM stood at 53%. The inhibition at 160 µM in test [2] (setting [5]) came out at 46%.

In the case of `C[C@@H]1CN(CC(=O)N2CCc3ccc(N(C)c4ccccc4)cc32)CCN1` [Example 2, 1-[6-(Methyl-phenyl-amino)-2,3-dihydro-indol-1-yl]-2-((R)-3-methyl-piperazin-1-yl)-ethanone Trifluoroacetate salt], the IC50 amounted to 41 µM in test [1] and 79 µM in test [2] (setting [3]).

As to `COC[C@H]1CN[C@H](C)CN1CC(=O)N1CC(C)(C)c2cnc(N3CCCC3=O)cc21` [Example 102, 1-(1-{2-[(2R,5R)-2-(Methoxymethyl)-5-methylpiperazin-1-yl]acetyl}-3,3-dimethyl-1H,2H,3H-pyrrolo[3,2-c]pyridin-6-yl)pyrrolidin-2-one, hydrochloride salt], the IC50 was 3.2 µM in test [1], under 1 µM in test [2] and 0.65 µM in test [2] (setting [4]).

On to `C[C@@H]1CN(CC(=O)N2CCc3ccc(NS(C)(=O)=O)cc32)CCN1` [Example 8, N-{1-[2-((R)-3-Methyl-piperazin-1-yl)-acetyl]-2,3-dihydro-1H-indol-6-yl}-methane-sulfonamide], for which the inhibition at 160 µM is 59% in test [1] (1 h, @ 160 μM, read-out: IC50 or PI Xiap: PI) and 46% in test [2] (setting [5]).

For the molecule `COC[C@H]1CN[C@H](C)CN1CC(=O)N1CC(C)(C)c2cc(=O)n(C)cc21` [Example 66, 1-[2-((2R,5R)-2-Methoxymethyl-5-methyl-piperazin-1-yl)-acetyl]-3,3,6-trimethyl-1,2,3,6-tetrahydro-pyrrolo[2,3-c]pyridin-5-one hydrochloride salt], the inhibition at 10 µM in test [1] (setting [6]) is 44%. The inhibition at 3 µM in test [2] (3 h, Probe B, @ 3 μM, read-out: IC50 or PI cIAP1: PI) stood at 53%.

`C[C@@H]1CN(CC(=O)N2CC3(CCC3)c3ccc(Cl)cc32)CCN1` [Example 55, 1-{6′-Chloro-1′,2′-dihydrospiro[cyclobutane-1,3′-indole]-1′-yl}-2-[(3R)-3-methyl-piperazin-1-yl]ethan-1-one hydrochloride salt]: the values for the IC50 in test [1] and in test [2] (setting [4]) were 12 µM and 8.2 µM, respectively.

Turning to `CNS(=O)(=O)c1cc2c(cc1Br)CCN2C(=O)CN1CCN[C@H](C)C1` [Example 25, 5-Bromo-1-[2-((R)-3-methyl-piperazin-1-yl)-acetyl]-2,3-dihydro-1H-indole-6-sulfonic acid methylamide hydrochloride salt], the 50% inhibitory concentration (IC50) in test [1] worked out at 1.6 µM; in test [2] (setting [7]), 60 µM; in test [2] (setting [4]), 61 µM.

On to `C[C@@H]1CN(CC(=O)N2CCc3cc(F)ccc32)CCN1` [Example 9, 1-(5-Fluoro-2,3-dihydro-indol-1-yl)-2-((R)-3-methyl-piperazin-1-yl)-ethanone], for which the IC50 in test [1] came out at 130 µM; in test [2] (setting [7]), 170 µM.

As for `C[C@@H]1CN(CC(=O)N2CC(C)(C)c3c(Cl)cc(Cl)cc32)CCN1` [Example 46, 1-(4,6-Dichloro-3,3-dimethyl-2,3-dihydro-indol-1-yl)-2-((R)-3-methyl-piperazin-1-yl)-ethanone hydrochloride salt], the IC50 was 9 µM in test [1] and 4.8 µM in test [2] (setting [4]).
